Test results from ChEMBL document CHEMBL2073846, “Pharmacokinetic study of the hepatobiliary transport of indomethacin” (Pharm Res, 2000).

How the values were obtained:
[1] = biological target: T1, ATP-binding cassette sub-family C member 2 (Rattus norvegicus, UniProt Q63120); test: TP_TRANSPORTER: biliary excretion in EHBR rat; format: functional, organism-based, Bile; details: in vivo
[2] = biological target: T1, ATP-binding cassette sub-family C member 2; test: TP_TRANSPORTER: biliary excretion in SD rat; format: functional, organism-based, Sprague-Dawley, Bile; details: in vivo
[3] = biological target: T2, Hepatic sodium/bile acid cotransporter (Rattus norvegicus, UniProt P26435); test: TP_TRANSPORTER: uptake in Ntcp-expressing COS-7 cells; format: functional, cell-based; details: monkey
T2 sequence (P26435 whole entry): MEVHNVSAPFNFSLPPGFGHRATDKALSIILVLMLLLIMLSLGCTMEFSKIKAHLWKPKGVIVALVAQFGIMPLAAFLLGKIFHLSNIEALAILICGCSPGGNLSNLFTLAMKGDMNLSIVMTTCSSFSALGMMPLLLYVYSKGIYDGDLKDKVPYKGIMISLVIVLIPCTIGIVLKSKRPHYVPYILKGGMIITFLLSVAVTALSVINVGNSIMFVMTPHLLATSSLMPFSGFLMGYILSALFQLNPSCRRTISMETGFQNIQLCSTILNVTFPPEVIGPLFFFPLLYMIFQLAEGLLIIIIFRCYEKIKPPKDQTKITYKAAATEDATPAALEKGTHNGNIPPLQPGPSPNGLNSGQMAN

[4] = biological target: T3, Solute carrier organic anion transporter family member 1A1 (Rattus norvegicus, UniProt P46720); test: TP_TRANSPORTER: uptake in Oatp1-expressing COS-7 cells; format: functional, cell-based; details: monkey
T3 sequence (P46720 whole entry): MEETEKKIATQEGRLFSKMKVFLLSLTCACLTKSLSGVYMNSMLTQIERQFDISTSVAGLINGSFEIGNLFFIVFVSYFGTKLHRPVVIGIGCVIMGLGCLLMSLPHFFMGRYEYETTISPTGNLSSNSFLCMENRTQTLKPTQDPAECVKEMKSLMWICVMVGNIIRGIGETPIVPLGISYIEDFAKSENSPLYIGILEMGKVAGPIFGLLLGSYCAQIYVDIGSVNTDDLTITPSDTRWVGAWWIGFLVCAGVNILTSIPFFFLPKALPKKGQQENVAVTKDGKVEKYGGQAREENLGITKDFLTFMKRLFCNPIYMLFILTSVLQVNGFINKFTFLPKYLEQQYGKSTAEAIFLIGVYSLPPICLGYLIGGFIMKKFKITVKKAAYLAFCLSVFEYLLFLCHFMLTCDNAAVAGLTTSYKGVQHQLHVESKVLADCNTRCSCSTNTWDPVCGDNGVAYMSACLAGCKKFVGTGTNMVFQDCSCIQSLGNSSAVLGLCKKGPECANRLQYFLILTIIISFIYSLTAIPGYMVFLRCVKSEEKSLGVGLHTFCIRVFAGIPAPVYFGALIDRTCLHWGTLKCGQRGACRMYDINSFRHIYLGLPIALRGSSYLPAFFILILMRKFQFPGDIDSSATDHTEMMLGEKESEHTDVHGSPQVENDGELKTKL

T1 sequence (Q63120 whole entry): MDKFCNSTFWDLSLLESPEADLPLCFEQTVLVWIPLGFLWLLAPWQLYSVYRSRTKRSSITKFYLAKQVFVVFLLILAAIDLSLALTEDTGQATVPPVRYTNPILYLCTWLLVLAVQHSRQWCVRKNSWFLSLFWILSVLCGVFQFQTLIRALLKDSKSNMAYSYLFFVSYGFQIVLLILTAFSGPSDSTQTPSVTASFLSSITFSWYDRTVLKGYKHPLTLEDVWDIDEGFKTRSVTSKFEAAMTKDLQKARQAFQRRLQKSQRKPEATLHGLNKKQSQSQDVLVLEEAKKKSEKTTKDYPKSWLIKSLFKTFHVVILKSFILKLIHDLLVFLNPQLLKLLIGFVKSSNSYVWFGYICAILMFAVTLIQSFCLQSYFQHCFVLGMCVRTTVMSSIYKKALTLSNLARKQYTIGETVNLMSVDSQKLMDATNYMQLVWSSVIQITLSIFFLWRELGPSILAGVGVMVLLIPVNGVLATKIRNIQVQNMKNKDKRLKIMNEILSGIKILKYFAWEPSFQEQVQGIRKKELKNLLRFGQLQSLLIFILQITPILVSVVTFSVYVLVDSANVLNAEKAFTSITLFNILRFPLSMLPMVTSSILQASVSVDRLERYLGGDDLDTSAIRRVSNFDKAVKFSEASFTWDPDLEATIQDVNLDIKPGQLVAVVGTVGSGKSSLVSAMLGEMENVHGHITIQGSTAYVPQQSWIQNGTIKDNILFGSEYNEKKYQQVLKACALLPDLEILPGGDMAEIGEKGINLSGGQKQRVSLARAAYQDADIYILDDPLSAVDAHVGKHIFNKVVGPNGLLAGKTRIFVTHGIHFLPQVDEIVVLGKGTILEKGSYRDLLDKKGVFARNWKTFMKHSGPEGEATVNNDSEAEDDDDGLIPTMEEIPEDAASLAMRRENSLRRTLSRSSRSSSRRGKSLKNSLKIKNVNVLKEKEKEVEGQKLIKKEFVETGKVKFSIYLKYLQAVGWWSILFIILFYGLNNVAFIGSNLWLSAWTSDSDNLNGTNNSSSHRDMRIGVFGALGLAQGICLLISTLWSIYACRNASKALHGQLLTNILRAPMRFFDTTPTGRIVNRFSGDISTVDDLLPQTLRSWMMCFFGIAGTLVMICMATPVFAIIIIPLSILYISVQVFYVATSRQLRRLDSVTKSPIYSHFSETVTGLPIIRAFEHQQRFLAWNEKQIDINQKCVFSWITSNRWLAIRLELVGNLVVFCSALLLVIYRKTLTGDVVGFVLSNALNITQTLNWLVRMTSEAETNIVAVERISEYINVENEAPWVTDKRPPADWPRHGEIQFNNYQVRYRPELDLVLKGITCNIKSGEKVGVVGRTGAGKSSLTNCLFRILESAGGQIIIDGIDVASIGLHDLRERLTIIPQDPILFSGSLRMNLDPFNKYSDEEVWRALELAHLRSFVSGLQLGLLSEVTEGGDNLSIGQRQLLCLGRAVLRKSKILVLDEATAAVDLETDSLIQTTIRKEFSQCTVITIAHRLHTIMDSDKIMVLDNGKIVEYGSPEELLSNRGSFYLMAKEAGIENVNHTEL

| Compound | Activity [1] | Activity [2] | Activity [3] | Activity [4] |
| --- | --- | --- | --- | --- |
| COc1ccc2c(c1)c(CC(=O)O[C@@H]1O[C@H](C(=O)O)[C@@H](O)[C@H](O)[C@H]1O)c(C)n2C(=O)c1ccc(Cl)cc1 [INDOMETHACIN GLUCURONIDE] | substrate [+] | substrate [+] | – | – |
| COc1ccc2c(c1)c(CC(=O)O)c(C)n2C(=O)c1ccc(Cl)cc1 [INDOMETHACIN] | is not a substrate [-] | is not a substrate [-] | is not a substrate [-] | is not a substrate [-] |
